In assay [1] the target is T1, Voltage-gated N-type calcium channel alpha-1B subunit/Amyloid beta A4 precursor protein-binding family A member 1 (Homo sapiens, UniProt Q00975+Q02410). Put plainly: disruptors of Mint-PDZ/N-type channel peptide interaction – biochemical, HTRF, SAR follow-up (AID 2489). It counts as functional.
Assay [2] has as its target T1, Voltage-gated N-type calcium channel alpha-1B subunit/Amyloid beta A4 precursor protein-binding family A member 1. The class given is protein assay.
For assay [3] the target is unchanged. The class given is protein assay. The source holds these as a separate data set.
Assay [4] in a line: A Cell Based Secondary Assay To Explore Cytotoxicity of Compounds that Sensitize Mycobacterium Tuberculosis to Beta-Lactam Antibiotics. The class given is functional.
The subject of another assay is HeLa. Kind of assay: viability loss in HeLa cells – cell-based, 24 h, cherry-picked samples, cytotoxicity control, dose response (AID 504726).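 Also: potency for cytotoxicity as loss of luminescence signal.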 It counts as functional. As to conditions: Homo sapiens.
For another assay, the target named is Aspartyl aminopeptidase (Plasmodium falciparum 3D7, UniProt Q8I2J3).
For a further assay, the target named is Procathepsin L (Homo sapiens, UniProt P07711).
The target of assay [5] is T2, Heat shock factor protein 1 (Mus musculus, UniProt P38532).
T2 sequence (P38532 whole entry): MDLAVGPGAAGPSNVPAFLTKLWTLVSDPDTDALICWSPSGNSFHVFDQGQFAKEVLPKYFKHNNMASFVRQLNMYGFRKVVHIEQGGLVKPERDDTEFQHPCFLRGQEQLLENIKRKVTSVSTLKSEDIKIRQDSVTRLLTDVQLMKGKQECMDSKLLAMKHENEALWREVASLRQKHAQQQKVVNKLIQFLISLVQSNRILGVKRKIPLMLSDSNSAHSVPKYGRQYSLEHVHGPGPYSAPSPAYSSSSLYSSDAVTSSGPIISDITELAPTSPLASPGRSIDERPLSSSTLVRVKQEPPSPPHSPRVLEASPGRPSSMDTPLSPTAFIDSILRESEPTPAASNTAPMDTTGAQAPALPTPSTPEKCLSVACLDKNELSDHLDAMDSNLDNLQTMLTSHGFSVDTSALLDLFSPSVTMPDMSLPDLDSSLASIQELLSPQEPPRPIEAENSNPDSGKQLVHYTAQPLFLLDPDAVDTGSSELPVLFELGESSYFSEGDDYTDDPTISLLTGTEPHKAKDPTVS
Put plainly: enhancement of HSF1-driven luciferase signal – cell-based, NIH3T3, luminescence, dose retest, confirmation (AID 435004).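 Also: stress induced by proteasome inhibitor MG132 added 30 min after compound; luciferase reporter driven by HSF1 response element in NIH3T3 cells; actives raise luminescence as potentiators of the MG132 stress response.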 The class given is functional.

Assay [6] concerns the target T3, Mannose-6-phosphate isomerase (Homo sapiens, UniProt P34949).
T3 sequence (P34949 whole entry): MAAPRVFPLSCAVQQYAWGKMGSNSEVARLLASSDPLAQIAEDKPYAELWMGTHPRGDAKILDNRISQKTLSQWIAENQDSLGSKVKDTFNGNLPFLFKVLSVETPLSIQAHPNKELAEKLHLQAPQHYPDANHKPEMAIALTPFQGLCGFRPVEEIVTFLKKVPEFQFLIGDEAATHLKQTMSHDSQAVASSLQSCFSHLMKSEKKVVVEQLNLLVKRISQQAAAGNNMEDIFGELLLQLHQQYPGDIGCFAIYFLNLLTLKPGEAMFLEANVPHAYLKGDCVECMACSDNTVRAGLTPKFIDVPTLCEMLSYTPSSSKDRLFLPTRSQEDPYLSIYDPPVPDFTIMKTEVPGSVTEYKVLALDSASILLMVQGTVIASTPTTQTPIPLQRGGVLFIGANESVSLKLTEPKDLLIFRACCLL
Kind of assay: MPI enzyme activity inhibition – biochemical, fluorescence intensity, coupled assay, primary screen (AID 1209).

The target of assay [7] is T4, Eukaryotic translation initiation factor 4H (Homo sapiens, UniProt Q15056). Put plainly: inhibitors of translation initiation factor eIF4H – SAR follow-up (AID 435011). The class given is functional.
Assay [8] addresses T5, Polyadenylate-binding protein 1 (Homo sapiens, UniProt P11940). Put plainly: PABP inhibition in translation initiation, SAR follow-up (AID 435018). The class given is functional.
A short description of assay [9]: alpha-synuclein stem-loop luciferase translation blockers – H4 neuroglioma cells, luminescence, confirmation (AID 1988). It counts as functional, cell-based.
Assay [10] in a line: alpha-synuclein stem-loop translation blockers – luminescence, H4 neuroglioblastoma cells, dose confirmation, confirmation (AID 2454).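 Also: H4 neuroglioblastoma cells carrying an alpha-synuclein 5'UTR luciferase reporter; potency for inhibition of the luciferase signal.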 It counts as functional, cell-based.
Assay [11] can be described thus: cells. The class given is functional, cell-based.
Assay [12] is described as follows: luciferase reporter signal suppression in cells – H4 neuroglioma cells, luminescence, dose response (AID 1990). It counts as functional, cell-based.
Assay [13] can be described thus: Luminescence Cell-Based Dose Response HTS to Identify Inhibitors of 5'UTR Stem-Loop Driven Prion Protein mRNA Translation in H4 Neuroglioblastoma Cells. [Related pubchem assays: 1827 (Project Summary), 1813 (Primary HTS)]. The class given is functional.
Assay [14] in a line: luciferase reporter signal reduction – luminescence, H4-C neuroglioblastoma cells, dose response (AID 2458).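 Also: H4 neuroglioblastoma cells stably carrying a luciferase reporter gene fusion.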 It counts as functional, cell-based.
Assay [15] can be described thus: HEK-293T viability loss after treatment – luminescence, T-cell screen hits, cytotoxicity control for TCR NF-kB inhibitor project, dose response (AID 489026).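 Also: cells exposed to compound about 14 hours before the viability readout.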 It counts as functional, cell-based.
In assay [16] the target is T6, Nuclear receptor subfamily 0 group B member 1 (Homo sapiens, UniProt P51843).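 Also: HEK293T cells transfected with SF-1 and DAX-1 plus StAR promoter luciferase reporter.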
T6 sequence (P51843 whole entry): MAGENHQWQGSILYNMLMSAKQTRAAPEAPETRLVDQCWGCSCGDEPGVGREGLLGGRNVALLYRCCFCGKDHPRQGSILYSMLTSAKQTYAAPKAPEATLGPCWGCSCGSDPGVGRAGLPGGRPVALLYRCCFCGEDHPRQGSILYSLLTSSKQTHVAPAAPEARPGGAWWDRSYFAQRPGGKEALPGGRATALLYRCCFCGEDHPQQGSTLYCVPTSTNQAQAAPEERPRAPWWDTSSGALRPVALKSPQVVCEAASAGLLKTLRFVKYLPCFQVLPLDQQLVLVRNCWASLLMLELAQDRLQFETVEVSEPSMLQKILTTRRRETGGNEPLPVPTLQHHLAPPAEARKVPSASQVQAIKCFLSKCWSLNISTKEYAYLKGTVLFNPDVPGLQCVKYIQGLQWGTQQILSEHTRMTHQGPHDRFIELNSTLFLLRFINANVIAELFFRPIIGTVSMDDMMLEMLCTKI
It counts as functional, cell-based.

The nature of assay [17]: cells. The class given is functional, cell-based. The source holds these as a separate data set.
Assay [18] has as its target T4, Eukaryotic translation initiation factor 4H. Put plainly: eIF4H binding inhibition – biochemical, uHTS, fluorescence polarization, translation initiation inhibitor project, primary screen (AID 2012). (Polarisation of emitted light reports the rotation of a fluorescent probe.)
Assay [19] concerns the target DNA dC->dU-editing enzyme APOBEC-3A (Homo sapiens, UniProt P31941). Put plainly: Dose Response confirmation of small molecule APOBEC3A DNA Deaminase Inhibitors via a fluorescence-based single-stranded DNA deaminase assay. [Related pubchem assays (depositor defined):AID493011, AID493024]. The class given is functional.
In assay [20] the target is T5, Polyadenylate-binding protein 1. Put plainly: blockers of PABP interaction with poly(A) – biochemical, fluorescence polarization, […] (AID 2014).
The target in assay [21] is T7, DNA dC->dU-editing enzyme APOBEC-3G (Homo sapiens, UniProt Q9HC16). The class given is functional.
The target in assay [22] is Glutathione-S-transferase (Schistosoma japonicum, UniProt Q26513). Kind of assay: GST-antibody interaction or FRET quenching – biochemical, TR-FRET, artefact control for Vif-APOBEC3G degradation inhibitor project, dose response (AID 1117362). It counts as functional.
For the next assay, the target named is Estrogen receptor beta (Homo sapiens, UniProt Q92731). Put plainly: blockers of SRC-3 recruitment to ERβ – biochemical, ELISA, streptavidin-HRP readout, orthogonal assay, confirmation (AID 1060). (In general: An ELISA detects its analyte on a solid surface through an enzyme-linked reagent.)
In assay [23] the target is DNA (cytosine-5)-methyltransferase 1 (Homo sapiens, UniProt P26358). Kind of assay: inhibition of DNA methylation by DNMT1 – biochemical, fluorescent molecular beacon, confirmation (AID 602386). The class given is functional.
Assay [24] concerns the target Induced myeloid leukemia cell differentiation protein Mcl-1 (Homo sapiens, UniProt Q07820). The class given is functional.
Assay [25] addresses T7, DNA dC->dU-editing enzyme APOBEC-3G. Kind of assay: Dose Response confirmation of small molecule APOBEC3G DNA Deaminase Inhibitors via a fluorescence-based single-stranded DNA deaminase assay. [Related pubchem assays (depositor defined):AID493012, AID493028]. The class given is functional.
In assay [26] the target is T8, Carboxy-terminal domain RNA polymerase II polypeptide A small phosphatase 1 (Homo sapiens, UniProt Q9GZU7).
T8 sequence (Q9GZU7 whole entry): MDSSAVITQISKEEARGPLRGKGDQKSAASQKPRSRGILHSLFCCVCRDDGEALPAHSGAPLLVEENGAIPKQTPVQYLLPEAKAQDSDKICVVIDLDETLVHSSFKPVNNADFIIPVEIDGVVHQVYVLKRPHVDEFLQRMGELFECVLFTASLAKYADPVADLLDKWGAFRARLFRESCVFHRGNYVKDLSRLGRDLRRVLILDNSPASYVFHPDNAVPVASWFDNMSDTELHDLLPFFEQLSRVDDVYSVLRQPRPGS
Kind of assay: CTDSP1 inhibitors, concentration-response, biochemical, absorbance readout, ultra-high-throughput screen actives (AID 540297). The class given is functional.

The term IC50 denotes the concentration needed to halve the response being measured. Usually CC50 stands for the concentration that lowers cell viability or growth by half. One may read the AC50 as the concentration giving half of the maximal activity seen. One may read the EC50 as the midpoint of the concentration-response curve.

SMILES strings stand for the structures. Counter-ions that a name gives are not always drawn. Active and inactive are the calls of the source.

T7 sequence (Q9HC16 whole entry): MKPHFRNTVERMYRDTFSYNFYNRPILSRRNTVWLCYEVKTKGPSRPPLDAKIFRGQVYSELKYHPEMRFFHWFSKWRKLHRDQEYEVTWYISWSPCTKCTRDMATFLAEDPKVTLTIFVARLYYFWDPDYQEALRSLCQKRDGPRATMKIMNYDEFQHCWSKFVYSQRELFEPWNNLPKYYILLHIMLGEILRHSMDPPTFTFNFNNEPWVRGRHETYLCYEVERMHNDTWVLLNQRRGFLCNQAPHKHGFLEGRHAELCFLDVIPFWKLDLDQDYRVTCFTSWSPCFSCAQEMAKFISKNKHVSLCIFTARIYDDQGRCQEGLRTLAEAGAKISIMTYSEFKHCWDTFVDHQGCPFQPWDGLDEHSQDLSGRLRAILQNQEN
T1 sequence (Q00975 whole entry): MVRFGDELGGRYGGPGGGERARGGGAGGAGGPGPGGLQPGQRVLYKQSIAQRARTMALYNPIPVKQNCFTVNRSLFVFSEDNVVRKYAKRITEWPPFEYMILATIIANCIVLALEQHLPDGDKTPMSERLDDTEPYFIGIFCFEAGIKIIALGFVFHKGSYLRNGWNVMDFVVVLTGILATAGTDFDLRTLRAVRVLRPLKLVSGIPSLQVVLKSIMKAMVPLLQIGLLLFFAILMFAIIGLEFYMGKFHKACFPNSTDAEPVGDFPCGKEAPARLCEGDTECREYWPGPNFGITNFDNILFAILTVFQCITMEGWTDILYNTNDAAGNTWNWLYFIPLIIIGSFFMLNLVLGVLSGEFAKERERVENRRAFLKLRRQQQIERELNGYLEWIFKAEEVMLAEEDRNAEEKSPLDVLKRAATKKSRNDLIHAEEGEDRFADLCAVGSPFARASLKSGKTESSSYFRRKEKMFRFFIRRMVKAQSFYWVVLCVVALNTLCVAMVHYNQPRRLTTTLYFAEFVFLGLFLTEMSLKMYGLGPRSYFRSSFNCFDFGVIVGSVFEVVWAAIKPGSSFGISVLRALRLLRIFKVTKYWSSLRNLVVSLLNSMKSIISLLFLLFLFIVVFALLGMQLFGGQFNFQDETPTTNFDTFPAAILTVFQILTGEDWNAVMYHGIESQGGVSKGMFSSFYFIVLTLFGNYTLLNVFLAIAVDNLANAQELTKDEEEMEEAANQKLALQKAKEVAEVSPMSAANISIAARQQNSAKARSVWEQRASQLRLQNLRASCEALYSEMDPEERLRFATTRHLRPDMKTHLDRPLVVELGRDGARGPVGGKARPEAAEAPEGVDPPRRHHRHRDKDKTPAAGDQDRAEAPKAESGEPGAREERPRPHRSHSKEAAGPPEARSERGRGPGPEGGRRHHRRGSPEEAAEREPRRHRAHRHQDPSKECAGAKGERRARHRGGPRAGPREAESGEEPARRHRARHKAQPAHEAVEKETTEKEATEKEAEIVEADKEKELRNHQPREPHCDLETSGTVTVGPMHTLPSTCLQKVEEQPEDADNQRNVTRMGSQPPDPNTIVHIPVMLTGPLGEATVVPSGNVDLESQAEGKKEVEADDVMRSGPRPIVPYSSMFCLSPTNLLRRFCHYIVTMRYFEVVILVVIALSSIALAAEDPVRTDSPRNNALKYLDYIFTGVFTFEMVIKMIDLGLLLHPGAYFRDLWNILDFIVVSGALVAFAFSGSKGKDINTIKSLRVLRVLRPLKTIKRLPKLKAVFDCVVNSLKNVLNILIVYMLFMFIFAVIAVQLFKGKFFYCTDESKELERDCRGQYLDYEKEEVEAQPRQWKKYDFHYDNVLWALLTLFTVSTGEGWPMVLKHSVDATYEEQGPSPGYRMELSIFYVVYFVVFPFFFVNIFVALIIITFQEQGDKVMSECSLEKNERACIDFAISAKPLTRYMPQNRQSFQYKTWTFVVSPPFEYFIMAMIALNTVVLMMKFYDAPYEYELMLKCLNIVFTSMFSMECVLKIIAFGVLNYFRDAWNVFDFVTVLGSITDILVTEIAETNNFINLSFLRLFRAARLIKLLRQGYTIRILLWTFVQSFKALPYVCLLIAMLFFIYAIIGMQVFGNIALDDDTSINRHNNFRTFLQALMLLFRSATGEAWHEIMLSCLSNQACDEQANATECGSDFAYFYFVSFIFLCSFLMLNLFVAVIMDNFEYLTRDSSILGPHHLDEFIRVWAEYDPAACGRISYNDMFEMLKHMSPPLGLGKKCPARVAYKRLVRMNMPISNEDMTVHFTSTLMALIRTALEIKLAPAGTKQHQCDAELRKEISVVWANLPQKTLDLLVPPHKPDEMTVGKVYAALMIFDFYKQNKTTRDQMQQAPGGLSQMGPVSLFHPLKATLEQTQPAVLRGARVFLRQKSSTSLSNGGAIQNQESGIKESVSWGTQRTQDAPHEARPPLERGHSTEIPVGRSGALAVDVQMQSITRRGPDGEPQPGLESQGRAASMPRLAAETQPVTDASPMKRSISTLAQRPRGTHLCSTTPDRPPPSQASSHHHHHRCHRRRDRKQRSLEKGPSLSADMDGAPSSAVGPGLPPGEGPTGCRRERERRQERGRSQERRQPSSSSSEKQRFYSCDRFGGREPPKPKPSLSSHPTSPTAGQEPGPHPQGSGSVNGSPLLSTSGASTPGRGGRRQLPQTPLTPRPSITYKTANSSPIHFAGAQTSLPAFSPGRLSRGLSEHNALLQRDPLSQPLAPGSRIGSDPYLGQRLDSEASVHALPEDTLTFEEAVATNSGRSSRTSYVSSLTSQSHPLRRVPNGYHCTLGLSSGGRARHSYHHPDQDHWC
T1 sequence (Q02410 whole entry): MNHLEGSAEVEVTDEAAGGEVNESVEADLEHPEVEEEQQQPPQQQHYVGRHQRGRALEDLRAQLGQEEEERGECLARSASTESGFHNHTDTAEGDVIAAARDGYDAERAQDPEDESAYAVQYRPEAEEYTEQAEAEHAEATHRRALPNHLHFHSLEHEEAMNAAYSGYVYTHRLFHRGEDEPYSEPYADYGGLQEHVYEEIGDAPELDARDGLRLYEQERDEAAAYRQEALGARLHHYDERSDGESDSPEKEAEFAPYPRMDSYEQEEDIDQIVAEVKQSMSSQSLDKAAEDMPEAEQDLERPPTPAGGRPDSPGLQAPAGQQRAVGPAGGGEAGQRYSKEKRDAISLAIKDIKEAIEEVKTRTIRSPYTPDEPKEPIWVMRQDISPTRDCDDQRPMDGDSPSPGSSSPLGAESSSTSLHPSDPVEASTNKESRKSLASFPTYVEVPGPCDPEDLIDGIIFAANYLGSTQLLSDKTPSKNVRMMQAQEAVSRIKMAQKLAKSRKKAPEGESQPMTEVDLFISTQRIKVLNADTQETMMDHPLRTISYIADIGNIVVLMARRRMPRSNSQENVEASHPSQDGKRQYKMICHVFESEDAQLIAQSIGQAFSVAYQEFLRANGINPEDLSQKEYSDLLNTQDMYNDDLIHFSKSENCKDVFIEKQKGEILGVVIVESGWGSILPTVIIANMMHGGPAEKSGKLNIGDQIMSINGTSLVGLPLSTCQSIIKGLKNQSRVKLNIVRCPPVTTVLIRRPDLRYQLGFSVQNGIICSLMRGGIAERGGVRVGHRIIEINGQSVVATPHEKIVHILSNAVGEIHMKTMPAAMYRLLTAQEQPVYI
T5 sequence (P11940 whole entry): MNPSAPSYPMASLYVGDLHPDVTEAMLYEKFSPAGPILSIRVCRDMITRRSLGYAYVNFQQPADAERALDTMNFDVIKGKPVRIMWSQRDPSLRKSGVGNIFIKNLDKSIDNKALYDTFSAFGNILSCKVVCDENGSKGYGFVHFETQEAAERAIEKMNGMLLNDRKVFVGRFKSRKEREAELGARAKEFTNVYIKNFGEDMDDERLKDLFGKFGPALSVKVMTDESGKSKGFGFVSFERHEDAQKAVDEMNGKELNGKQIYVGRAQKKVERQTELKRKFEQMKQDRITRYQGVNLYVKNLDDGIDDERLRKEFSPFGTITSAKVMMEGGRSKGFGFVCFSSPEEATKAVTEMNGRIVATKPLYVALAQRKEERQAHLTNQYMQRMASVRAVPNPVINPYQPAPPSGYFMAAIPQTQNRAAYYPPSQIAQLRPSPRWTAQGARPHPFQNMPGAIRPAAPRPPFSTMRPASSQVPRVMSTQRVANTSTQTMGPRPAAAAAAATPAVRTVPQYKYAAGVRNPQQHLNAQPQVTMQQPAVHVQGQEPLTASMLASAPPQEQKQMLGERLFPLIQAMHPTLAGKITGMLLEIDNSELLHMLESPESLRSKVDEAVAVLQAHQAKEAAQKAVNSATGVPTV
DNA dC->dU-editing enzyme APOBEC-3A, sequence (P31941 whole entry): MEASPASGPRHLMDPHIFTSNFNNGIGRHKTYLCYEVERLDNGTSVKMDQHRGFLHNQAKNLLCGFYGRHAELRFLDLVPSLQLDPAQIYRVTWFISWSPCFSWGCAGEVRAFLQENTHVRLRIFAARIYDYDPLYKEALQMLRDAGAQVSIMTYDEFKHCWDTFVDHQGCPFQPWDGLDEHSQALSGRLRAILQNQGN
Procathepsin L, sequence (P07711 whole entry): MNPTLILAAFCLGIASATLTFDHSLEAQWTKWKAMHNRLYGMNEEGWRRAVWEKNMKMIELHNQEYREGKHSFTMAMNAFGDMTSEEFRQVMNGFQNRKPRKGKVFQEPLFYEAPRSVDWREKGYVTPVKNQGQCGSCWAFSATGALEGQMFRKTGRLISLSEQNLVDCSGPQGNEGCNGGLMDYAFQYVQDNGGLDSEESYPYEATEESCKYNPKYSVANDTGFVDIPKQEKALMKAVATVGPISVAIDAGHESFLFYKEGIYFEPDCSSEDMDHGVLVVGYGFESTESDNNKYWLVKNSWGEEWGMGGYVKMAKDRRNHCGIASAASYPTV

`CCOC(=O)c1sc2nc(-c3ccco3)c3c(c2c1N)CC(C)(C)OC3`: the IC50 in assay [1] was > 56.8 µM (inactive); in assay [2] it was 9.58 µM (active); in assay [3] it was 5.26 µM (active).

Turning to `CCC(C)Nc1c2c(nc3c(-c4ccccc4)c(C)nn13)CCC2` (configuration not stated), the CC50 in [4] is > 40 µM (active).

In the case of `CCOC(=O)c1c(C)n(-c2ccccc2)c2ccc(OCCN(C)C)cc12`, the CC50 in [4] is > 40 µM (active).

With `Cc1cc(C)n2nc(C(=O)OC(C)C(=O)c3cc(C)c(C)cc3C)nc2n1` (configuration not stated), in the assay with HeLa, the AC50 was > 350 µM (inactive).

Consider `Cc1ccc(Cl)cc1NC(=S)Nn1cnnc1`, for which the IC50 is 2.06 µM (active) at Aspartyl aminopeptidase and > 59.6 µM (not active) against Procathepsin L.

Regarding `Cc1ccc2cccnc2c1NC(=S)NC(=O)c1ccccc1`, the EC50 in assay [5] is > 260 µM (inactive). The IC50 in assay [6] is listed as > 50 µM (not active).

On to `Oc1ccccc1/C=N/c1ccccc1-c1nc2ccccc2[nH]1`, for which the half-maximal activity concentration (AC50) in the assay with HeLa was 241 µM (active).

Regarding `Cc1ccc(NC(=O)C2CCCN2C(=O)Oc2ccccc2)cc1` (configuration not stated), the IC50 in [7] and in assay [8] was > 100 µM (inactive) in each case.

Regarding `C=CCn1c(SCc2ccc(Cl)cc2)nc2c1c(=O)[nH]c(=O)n2C`, the half-maximal effective concentration (EC50) is > 120 µM (not active) in assay [9]; > 12 µM (not active) in assay [10]; > 12 µM (not active) in “cells [11]”; 29.3 µM (active) in assay [12]; < 0.1 µM (active) in [13]; > 12 µM (not active) in assay [14].

For the molecule `CC[C@]1(O)CC2CN(CCc3c([nH]c4ccccc34)[C@@](C(=O)OC)(c3cc4c(cc3OC)N(C=O)[C@H]3[C@@](O)(C(=O)OC)[C@H](OC(C)=O)[C@]5(CC)C=CCN6CC[C@]43[C@@H]65)C2)C1` (some centres not stated) [VINCRISTINE SULFATE], the EC50 was < 0.1 µM (active) in [9]; 0.055 µM (active) in assay [10]; 0.063 µM (active) in “cells [11]”; < 0.1 µM (active) in [12]; < 0.1 µM (active) in assay [13]; 0.047 µM (active) in assay [14]. In addition, the IC50 in assay [15] was > 80 µM (inactive); in [16] it was > 0.278 µM (active); in the assay “cells [17]” it was > 67.5 µM (inactive).

Take `Cc1cccc(C(=O)Nc2ccc(S(=O)(=O)N3CCOCC3)cc2C)c1`: the IC50 in assay [18] was > 100 µM (inactive); in assay [19], 4.44 µM (active); in assay [20] it was 11.2 µM (active); in [21], 9.37 µM (active).

With `O=C(c1ccc2nc(-c3ccco3)c(-c3ccco3)nc2c1)N1CCC2(CC1)OCCO2`, the IC50 is > 56.8 µM (inactive) in assay [1]; > 100 µM (active) in assay [22]; 2.45 µM (active) in assay [2]; 8.97 µM (not active) against Estrogen receptor beta; 1.39 µM (active) in assay [3].

Turning to `Oc1cccc2cc3cccc(O)c3c(O)c12`, the half-inhibitory concentration (IC50) in [23] is 1.9 µM (active); in assay [24], 2.39 µM (active); in assay [2] it was 19.9 µM (active); in [25] it was 16.9 µM (active); in assay [3], 38.3 µM (active).

Consider `COc1ccc(C(CC(=O)N2CCCCC2)c2c(OC)cc(OC)c3c(-c4ccccc4)cc(=O)oc23)cc1` (configuration not stated), for which the concentration for half-maximal inhibition (IC50) in [18] was 7.25 µM (active); in assay [19], 10.4 µM (active); in [26] it was 4.7 µM (active); in [20] it was 33.4 µM (active); in assay [21], 25.9 µM (active).

Values taken from ChEMBL document CHEMBL1201862, “PubChem BioAssay data set” (2004).
